Read-outs that look alike come from different tables or passages of the source.
What was measured:
[1] = biological target: T1, AChE from Electrophorus electricus (type VI-S) (Electrophorus electricus, UniProt O42275); assay: biochemical
T1 construct: purchased
Protocol: Acetylcholinesterase inhibitory activity was determined and modified from Ellman, as described elsewhere. […] The enzyme activity and the percentage inhibition were determined. […] All determinations were carried out at least three times and in triplicate wells.

[2] = biological target: T2, AChE-induced Aβ1–42 aggregation (Electrophorus electricus, UniProt O42275); assay: Inhibition of AChE-induced Aβ1–42 aggregation (thioflavin T assay); type: biochemical; details: for inhibitory effect on AChE-induced Aβ1–42 aggregation (in words): ThT-based fluorescence assay
T2 construct: purchased
Protocol: Inhibition of AChE-induced Aβ1–42 aggregation was modified and measured using a thioflavin T (ThT) binding assay, as described elsewhere. Briefly, Aβ1–42 was dissolved in 50 mM phosphate buffer (pH 8.0). […] The fluorescence intensities were recorded, and the percentage of inhibition on aggregation was calculated by using the following equation: (1 – IFi/IFc) * 100%, in which IFi and IFc were the fluorescence of the AChE-induced Aβ1–42 aggregation group in the presence and absence of the test compounds, respectively, after subtracting the fluorescence of self Aβ1–42 aggregation and the background fluorescence of 5 μM ThT in the blank buffers. […] All determinations were carried out at least three times and in triplicate wells. […]

Aβ1–42 = Aβ1–42 (Homo sapiens, UniProt P05067); assay: Inhibition of self-induced Aβ1–42 aggregation (thioflavin T assay); type: biochemical; details: ThT fluorescence, Aβ1–42, 48 h at 37 °C, mean ± SD; read-out: Self-Induced Aβ IC50
Protocol: Inhibition of self-induced Aβ1–42 aggregation was assayed, as described elsewhere. […] After incubation, the samples were mixed with […] glycine/NaOH buffer (pH 8.5) containing 5 μM ThT. […] The fluorescence intensities were recorded, and the percentage of inhibition on aggregation was calculated by using the following equation: (1 − IFi/IFc) * 100% in which IFi and IFc were the fluorescence intensities obtained for Aβ1-42 aggregation group in the presence and absence of the test compounds, respectively, after subtracting the background fluorescence of 5 μM ThT in the blank buffers. […] The experiment was done in independent triplicates. […]

SH-SY5Y cells [3] = assay: Neuroprotection against Aβ1–42 toxicity (MTT); type: cell-based, Human; details: 0.1 to 10 µM with 25 µM Aβ1–42 for 24 h, compared to Aβ1–42-induced group
Protocol: (§1) Human neuroblastoma cells (SH-SY5Y) were cultured in Dulbecco’s Modified Eagle Medium (DMEM/Ha’s F12) containing 50 IU/mL penicillin, […] streptomycin, 2 mM L-glutamine, and 10% fetal bovine serum. Cells were maintained at 37 °C in a humidified incubator in an atmosphere of 5% CO2 For the assay, the SH-SY5Y cells, at a density of 5 × 10^5 cell/mL, were seeded in a 96-well plate and incubated for 48 h.
For neuroprotection against Aβ1–42 toxicity, the Aβ1–42 preparation was modified from. Briefly, lyophilized Aβ1–42 was reconstituted in sterile water and keep at −80 °C until further use. […] Cell viability was determined by the MTT colorimetric method. The optical density of each well was measured at 550 nm in a […] Accureader M965 microplate reader. […] All data were expressed as a percentage of non-Aβ1–42-treated groups (control group). Cell viability of the control group was expressed as 100%. […]
Aβ has been implicated in the pathogenesis of AD. […] Therefore, the neuroprotective effect against Aβ1–42 toxicity of phellopterin was also determined in SH-SY5Y cells. Aβ1–42 at concentration 25 µM was treated with cells in the presence or absence of phellopterin at a concentration 0.1 to 10 µM for 24 h, and then the cell viability was determined by MTT assay. […]

SH-SY5Y cells [4] = assay: Neuroprotection against H2O2-induced cell damage (MTT); type: cell-based, Human; details: pre-incubation with 10 µM for 24 h, then 100 µM H2O2 for 2 h, compared to H2O2 treated group
Protocol: as §1
For neuroprotection against H2O2 investigation, the cells were pretreated with coumarin in various concentrations for 24 h. After removing unabsorbed test compounds by washing with phosphate buffer saline, the cells were treated with 100 µM H2O2 for 2 h to induce oxidative stress. Cell viability was determined by the MTT colorimetric method. The optical density of each well was measured at 550 nm. […] All data were expressed as a percentage of non-H2O2-treated groups (control group). The cell viability of the control group was expressed as 100%. The experiment was done in independent triplicates (4 wells/group).
The neuroprotective effect of phellopterin against oxidative stress was determined by colorimetric MTT assay in SH-SY5Y cells. Hydrogen peroxide at concentration 100 µM was used to induce oxidative damage. SH-SY5Y cells were pretreated with phellopterin at a concentration of 0.1 to 10 µM for 24 h prior to exposure to H2O2 for 2 h.

SH-SY5Y cells [5] = assay: Cytotoxicity in SH-SY5Y cells (MTT); type: cell-based; details: 0.1 to 10 µM for 24 h
Protocol: as §1
For cytotoxicity evaluation, the cells were treated with potential coumarin derivatives in various concentrations for 24 h. After that, cell viability was determined by staining the cells with 3-(4, 5-dimethyl-2-thiazolyl)-2, 5-diphenyl-2H-tetrazolium bromide, and MTT (5 mg/mL in PBS) for 2 h. The optical density of each well was measured at 550 nm in a […] Accureader M965 microplate reader.

[6] = Ellman method, 0.2 Units/mL AChE, pH 7.4, mean ± SD, read-out: AChE assay IC50

T1 sequence (O42275 24-633): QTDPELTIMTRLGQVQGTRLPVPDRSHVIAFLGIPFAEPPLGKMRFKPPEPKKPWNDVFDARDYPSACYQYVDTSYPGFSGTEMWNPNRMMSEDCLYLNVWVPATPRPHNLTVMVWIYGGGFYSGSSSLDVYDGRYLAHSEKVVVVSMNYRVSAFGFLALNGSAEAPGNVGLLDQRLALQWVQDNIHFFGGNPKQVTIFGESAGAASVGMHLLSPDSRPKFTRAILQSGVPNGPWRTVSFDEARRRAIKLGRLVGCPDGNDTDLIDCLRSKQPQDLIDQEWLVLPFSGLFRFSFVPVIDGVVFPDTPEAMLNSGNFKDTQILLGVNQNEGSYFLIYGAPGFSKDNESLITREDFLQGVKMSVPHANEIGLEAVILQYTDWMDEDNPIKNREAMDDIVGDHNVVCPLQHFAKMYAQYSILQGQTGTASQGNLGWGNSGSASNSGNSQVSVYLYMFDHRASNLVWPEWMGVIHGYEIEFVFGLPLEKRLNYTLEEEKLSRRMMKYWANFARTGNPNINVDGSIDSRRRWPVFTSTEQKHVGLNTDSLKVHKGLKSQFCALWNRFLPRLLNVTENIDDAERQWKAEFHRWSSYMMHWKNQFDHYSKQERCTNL
T2 sequence (O42275 24-633): as above
Sequence of Aβ1–42 (P05067 672-713 limits assumed): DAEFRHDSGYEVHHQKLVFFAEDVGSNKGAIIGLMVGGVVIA

Row | SMILES | IC50 [1] [µM] | IC50 [2] [µM] | inhibitory effect on AChE-induced Aβ1–42 aggregation (in words) [2] | IC50 (Aβ1–42) [µM] | IC50 [1, 6] [µM] | effect on Aβ1–42-induced cell damage (cell viability) (SH-SY5Y cells [3]) | effect on H2O2-induced cell damage (cell viability) (SH-SY5Y cells [4]) | viability of SH-SY5Y cells (cytotoxicity) (SH-SY5Y cells [5])
1 | COc1c2ccoc2c(OC)c2oc(=O)ccc12 [Isopimpinellin, isopimpinellin] | 41 ± 1 | > 500 | did not have inhibitory effects | 125 ± 13 | – | – | – | –
2 | COc1cc2oc(=O)ccc2c(OC)c1CC(=O)C(C)C [Toddanone, toddanone] | – | 110 ± 2 | – | 76 ± 1 | 46 ± 3 | – | – | –
3 | COc1cc2oc(=O)ccc2c(OC)c1CC=C(C)C [Toddaculin, toddaculin] | – | 232 ± 10 | – | 143 ± 4 | 53 ± 9 | – | – | –
4 | COc1cc2oc(=O)ccc2c(OC)c1C[C@@H](O)C(C)(C)O [Toddalolactone, toddalolactone] | – | 105 ± 9 | – | 220 ± 1 | 49 ± 5 | – | – | –
5 | COc1cc(OC)c2ccc(=O)oc2c1/C=C/C(C)=O [Toddalenone, toddalenone] | – | 211 ± 29 | – | 99 ± 1 | 40 ± 4 | – | – | –
6 | COC1=CC(=O)c2cc(C)cc(-c3c(OC)cc(OC)c4ccc(=O)oc34)c2C1=O [Toddacoumaquinone, toddacoumaquinone] | – | 72 ± 5 | – | 145 ± 2 | 46 ± 12 | – | – | –
7 | COc1cc(OC)c2ccc(=O)oc2c1OCC=C(C)C [Artanin, artanin] | – | 98 ± 19 | – | 124 ± 10 | 51 ± 2 | – | – | –
8 | COc1cc2oc(=O)ccc2c(OC)c1O [Fraxinol, fraxinol] | – | > 500 | did not have inhibitory effects | 209 ± 21 | 18 ± 7 | – | – | –
9 | COc1c2ccoc2c(OCC=C(C)C)c2oc(=O)ccc12 [Phellopterin, phellopterin] | – | 97 ± 7 | – | 95 ± 3 | 38 ± 3 | significantly increase cell viability | significantly attenuated the H2O2-induced cell damage | no significant change
